Measured values reported in US5985933A, “Methods for treating central and peripheral nerve pain” (Celgene Corporation, priority 1997, dated 1999).
Where two headings read alike, the source gives them in different places.

Legend:
[1] = tested on: mechanical (tactile) allodynia in nerve ligation (Chung) model rats; assay: animal or person; conditions: for Duration / Time to peak effect / Max. efficacy (% MPE): Table I; for Max. efficacy (% MPE): highest dose tested; for ED50: Rattus norvegicus, ip
Protocol: Rats (male Sprague Dawley, Harlan Industries, Indianapolis, Ind.) are housed in ALAC approved cages using soft bedding and 12/12 hour day/night cycle, in atmospherically maintained rooms in the CTF/VA Animal Vivarium. For the nerve ligation model, rats are typically lesioned at 125-175 g body weight, while for the diabetic rat model, 275-325 gram rats are employed.
Kim SH, Chung JM: An experimental model for peripheral neuropathy produced by segmental spinal nerve ligation in the rat. Pain 50: 355-363 (1992).
Anomalous pain states evoked by nerve injury in man is believed to be modeled by effects produced by chronic peripheral nerve injury lesion in rats. To create a chronic nerve injury the L5 and L6 spinal nerves are visualized by removal of the L6 transverse process. The two spinal nerves are ligated with 6-0 silk thread […] under halothane anesthesia. […] The rats were allowed a 7 day postoperative recovery period before further studies or procedures.
Rats were placed in a clear plastic, wire mesh-bottomed cage, divided into individual compartments of 5×6×9 inches, which permitted freedom of movement while allowing access to the paws to be tested. Animals were allowed to accommodate to this environment for approximately 15 minutes, or until cage exploration behavior ceased. To assess the 50% mechanical threshold for paw withdrawal, von Frey hairs were applied to the plantar mid-hindpaw, avoiding the footpads. The eight von Frey hairs used are designated by and range from 0.4-15.1 grams (#'s3.61-5/18). Each hair was pressed perpendicularly against the paw with sufficient force to cause bending, and held for approximately 6-8 seconds. A positive response was noted if the paw was sharply withdrawn. Absence of a response was cause to present the next consecutive stronger stimulus: a positive response was cause to present the next weaker stimulus. If a change in response occurred, causing a change in the direction of stimulus presentation from descending to ascending or vice-versa, four additional data points were collected subsequent to the change. Stimuli were presented successively until either six data points were collected, or the maximum or minimum stimulus was reached. If a minimum stimulus was reached and positive responses still occurred, the threshold was assigned an arbitrary minimum value of 0.25 grams; if a maximum stimulus was presented and no response occurred, a maximum threshold value of 15 grams was assigned. The resulting pattern of responses was tabulated and the 50% response threshold computed using the formula:
log (threshold, mg×10)=Xf+k∂
Based on observations on normal, unoperated rats and sham-operated rats, the cutoff of a 15.1 g hair is selected as the upper limit for testing. (Chaplan, et al., 1994.)
Four agents were examined. […] The dose range was determined on a single rat on a 0.5 log unit dose until an endpoint of effect was reached (loss of motor function, seizure/rigidity, complete nerve blockage). Once the dose range was established, each drug was examined at a minimum of 3 doses in groups of 6 rats per dose. Groups were prepared to receive injections of drugs, or saline control, by i.p. injection. After the animals accommodated to the post-operative test environment, animals received treatment and the effects upon the tactile threshold were determined using the up-down method as described in Example 3. The following is a typical paradigm for IP application: […]

[2] = tested on: mechanical (tactile) allodynia in streptozotocin diabetic rats; conditions: i.p.; for Duration / Time to peak effect: Table III; for Max. efficacy (% MPE): Table III (3, 10 and 20 mg/kg levels only); for maximum efficacy or highest % suppression of allodynia at highest dosage unaffected by toxicity: Example 6
Protocol: (§1) Rats are made diabetic by a single intraperitoneal injection of streptozotocin (50 mg/kg body weight) freshly dissolved in 0.9% sterile saline) in order to ablate pancreatic β cells and induce insulin deficiency. Two days later, diabetes is confirmed in streptozotocin-injected rats by measuring glucose concentration in a blood sample obtained by tail prick, using a glucose oxidase-impregnated test strip and reflectance meter (Ames Glucostix and Glucometer II, Myles Inc., Elkhart, Ind.) (Calcutt, et al., 1993). Streptozotocin-injected animals with blood glucose concentrations below 15 mmol/l are excluded from subsequent studies. Diabetic rats received thrice weekly sub-cutaneous injections of 2U heat-treated Ultralente insulin (Novo Industrie A/C, Copenhagen, Denmark) in a regime shown to prevent loss of body weight and musculature whilst allowing continued hyperglycemia. Injections were made on Monday, Wednesday and Friday and behavioral measurements made on Tuesdays and Thursdays.

[3] = cited from earlier work
[4] = tested on: painful neuropathies; conditions: oral administration, literature; cited from earlier work
[5] = tested on: mechanical (tactile) allodynia in streptozotocin diabetic rats; assay: animal or person; conditions: Rattus norvegicus, ip
Protocol: as §1

[6] = tested on: cardiac sodium channels; conditions: Hill et al. 1988; cited from earlier work
[7] = tested on: arrhythmia in dogs; conditions: cited from earlier work
[8] = stated without a described test
[9] = read-out: ED 50 or the calculated dose for 50% suppression
[10] = 30 mg/kg, affected by toxicity/behavioral problems, not probative
[11] = Chung model rats, i.p., Example 5

Question: Which Duration ([1]; Chung model rats, i.p.) does the source give for `Cc1cccc(C)c1OCC(C)N` (racemic) [RS-Mexiletine, (R,S)-mexiletine] here?
Answer: 60 min

Question: And the “Time to peak effect” value ([1]; Chung model rats, i.p.)?
Answer: 15 to 30 min

Question: What about the “Max. efficacy (% MPE)” value ([1]; Chung model rats, i.p.) of the same compound?
Answer: 76 % MPE

Question: And the ED50 [1]?
Answer: 35 mg/kg

Question: What about the ED50 [1, 9] of the same compound?
Answer: 35 mg/kg

Question: What about the “% MPE” value ([2]; 3 mg/kg) of the same compound?
Answer: 20 % MPE

Question: And the “% MPE” value ([2]; 10 mg/kg)?
Answer: 29 % MPE

Question: And the “% MPE” value ([2]; 20 mg/kg)?
Answer: 42 % MPE

Question: And the “% MPE” value [2, 10]?
Answer: 75 % MPE

Question: And the Duration [2]?
Answer: < 60 min

Question: What about the “Time to peak effect” value [2] of the same compound?
Answer: 30 to 45 min

Question: What about the “Max. efficacy (% MPE)” value [2] of the same compound?
Answer: 61 % MPE

Question: What about the therapeutic-toxic concentration range ([3]; Monk et al. 1990) of the same compound?
Answer: 0.5 to 2.0 µg/mL

Question: And the “incidence of adverse side effects (tremors, diplopia, nausea and vomiting)” value ([3]; human, in vivo)?
Answer: up to 70% of patients

Question: And the “efficacy in painful neuropathies” value [4]?
Answer: has shown efficacy for a variety of painful neuropathies

Question: And the ED50 [5]?
Answer: 17 mg/kg

Question: Which results are given for `CCN(CC)CC(=O)Nc1c(C)cccc1C` [Lidocaine, lidocaine]?
Answer: Duration ([1]; Chung model rats, i.p.): 90 min; Time to peak effect ([1]; Chung model rats, i.p.): 15 min; Max. efficacy (% MPE) ([1]; Chung model rats, i.p.): 83 % MPE; ED50 [1]: 38 mg/kg; Duration [2]: 30 min; Time to peak effect [2]: 30 min; Max. efficacy (% MPE) [2]: 39 % MPE; ED50 [5]: 32 mg/kg

Question: What does the source list for `Cc1cccc(C)c1OC[C@@H](C)N` [R-Mexiletine, (R)-mexiletine]?
Answer: ED 50 (in words) [1, 11]: could not be calculated due to low effect at maximum dose; maximum efficacy or highest % suppression of allodynia at highest dose tested [1, 11]: 12%±5%; Time to peak effect ([1]; Chung model rats, i.p.): 30 min; Max. efficacy (% MPE) ([1]; Chung model rats, i.p.): 12 % MPE; % MPE ([2]; 3 mg/kg): 10 % MPE; % MPE ([2]; 10 mg/kg): 15 % MPE; % MPE ([2]; 20 mg/kg): 11 % MPE; % MPE [2, 10]: 86 % MPE; maximum efficacy or highest % suppression of allodynia at highest dosage unaffected by toxicity [2]: 11%±5%; Time to peak effect [2]: 15 to 30 min; Max. efficacy (% MPE) [2]: 11 % MPE; binding affinity relative to (S)-mexiletine [6]: twice that of (S)mexiletine; antiarrhythmic properties relative to the (S)-isomer ([7]; background finding referred to): greater than two times more antiarrhythmic properties than the (S)-isomer; antiarrhythmic properties relative to the (S)-enantiomer ([7]; dogs, Turgeon et al. 1991): greater antiarrhythmic properties than the (S)-enantiomer

Question: What does the source list for `Cc1cccc(C)c1OC[C@H](C)N` [S-Mexiletine, (S)-mexiletine]?
Answer: maximum efficacy or highest % suppression of allodynia at highest dose tested [1, 11]: 79%±11%; Duration ([1]; Chung model rats, i.p.): 60 min; Time to peak effect ([1]; Chung model rats, i.p.): 15 min; Max. efficacy (% MPE) ([1]; Chung model rats, i.p.): 79 % MPE; ED50 [1]: 14 mg/kg; ED50 [1, 9]: 14 mg/kg; % MPE ([2]; 3 mg/kg): 12 % MPE; % MPE ([2]; 10 mg/kg): 50 % MPE; % MPE ([2]; 20 mg/kg): 30 % MPE; % MPE [2, 10]: 75 % MPE; maximum efficacy or highest % suppression of allodynia at highest dosage unaffected by toxicity [2]: 65%±16%; Duration [2]: 60 min; Time to peak effect [2]: 15 to 45 min; Max. efficacy (% MPE) [2]: 65 % MPE; therapeutic-toxic range [8]: 0.25 to 4 µg/mL; ED50 [5]: 15 mg/kg
